Source: article PMC7377239, “Cardiovascular Effects of Polychlorinated Biphenyls and Their Major Metabolites” (Environmental Health Perspectives, 2020)
Counter-ions that a name gives are not always drawn. Like-named read-outs stand apart in the source and are kept apart here.

Legend:
[1] = system: iCell cardiomyocytes (human iPSC-derived cardiomyocytes); test: High-content imaging of cytotoxicity and mitochondrial integrity in iPSC-CMs; assay type: cell-based; details: Homo sapiens, Cardiomyocyte, cardiomyocytes (cm)
Summary of the method: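 Readouts from high-content images were normalized to vehicle controls containing 0.5% vol/vol DMSO. They were fit to a four-parameter logistic model in R. Points of departure were set using a cutoff of one standard deviation across vehicle control means. Where no concentration–response was seen, the top tested concentration of 100μM was assigned as the no observable adverse effect level.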

[2] = system: HUVECs; test: High-content imaging cytotoxicity in HUVECs, 24 h; assay type: cell-based, human; details: Homo sapiens, HUVEC, 24 h, HUVEC, 24 hr
Summary of the method: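 HUVECs (passages 1–5) grown to monolayer over 3–5 d, then exposed 24 h at 37°C, 5% CO2; stained with Hoechst 33342, MitoTracker Orange and calcein AM and imaged at 10×. Readouts normalized to 0.5% DMSO vehicle, four-parameter logistic fit; POD at one-SD cutoff, 100μM assigned when no response.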

O=S(=O)(O)Oc1cc(Cl)c(-c2cc(Cl)ccc2Cl)cc1Cl [4-PCB 52 sulfate] gave a minimal effective concentration ([1]; 1.5 h, cam, 90 min, read-out: POD cm.cam.90min) of 10.8 µM, a minimal effective concentration ([1]; 1.5 h, mii, 90 min, read-out: POD cm.mii.90min) of 41.2 µM and a minimal effective concentration ([1]; 1.5 h, mito, 90 min, read-out: POD cm.mito.90min) of 10.6 µM. The minimal effective concentration ([1]; 1.5 h, tc, 90 min, read-out: POD cm.tc.90min) was 10.8 µM, the minimal effective concentration ([1]; 24 h, cam, 24 hrs, read-out: POD cm.cam.24hrs) was 8.2 µM and the minimal effective concentration ([1]; 24 h, mii, 24 hrs, read-out: POD cm.mii.24hrs) was 44.6 µM. For the same compound, the minimal effective concentration ([1]; 24 h, mito, 24 hrs, read-out: POD cm.mito.24hrs) was 8.28 µM, the minimal effective concentration ([1]; 24 h, tc, 24 hrs, read-out: POD cm.tc.24hrs) was 8.44 µM and the minimal effective concentration ([2]; cyto, read-out: POD huvec.cyto.24hr) was 5.38 µM. For the same compound, the minimal effective concentration ([2]; mito, read-out: POD huvec.mito.24hr) was 3.31 µM, the minimal effective concentration ([2]; mitoint, read-out: POD huvec.mitoint.24hr) was 61.2 µM and the minimal effective concentration ([2]; nma, read-out: POD huvec.nma.24hr) was 33.9 µM. For the same compound, the minimal effective concentration ([2]; tc, read-out: POD huvec.tc.24hr) was 5.38 µM.
